Data: ChEMBL document CHEMBL1955806, “Design, synthesis, single-crystal and preliminary antitumor activity of novel arenesulfonylimidazolidin-2-ones” (2012)

Columns and labels:
Type in all cases: functional
HCT-116 = test: Growth inhibition of human HCT116 cells at 10 uM after 48 hrs by sulforhodamine B assay; settings: HCT-116, 48 h, read-out: GI
IGROV-1 = test: Growth inhibition of human IGROV1 cells at 10 uM after 48 hrs by sulforhodamine B assay; settings: IGROV-1, 48 h, read-out: GI
PC-3 = test: Growth inhibition of human PC3 cells at 10 uM after 48 hrs by sulforhodamine B assay; settings: PC-3, 48 h, read-out: GI
CAKI-1 = test: Growth inhibition of human CAKI-1 cells at 10 uM after 48 hrs by sulforhodamine B assay; settings: CAKI-1, 48 h, read-out: GI
UO-31 = test: Growth inhibition of human UO31 cells at 10 uM after 48 hrs by sulforhodamine B assay; settings: UO-31, 48 h, read-out: GI
UACC-62 = test: Growth inhibition of human UACC62 cells at 10 uM after 48 hrs by sulforhodamine B assay; settings: UACC-62, 48 h, read-out: GI
SF-295 = test: Growth inhibition of human SF295 cells at 10 uM after 48 hrs by sulforhodamine B assay; settings: SF-295, 48 h, read-out: GI
MOLT-4 = test: Growth inhibition of human MOLT4 cells at 10 uM after 48 hrs by sulforhodamine B assay; settings: MOLT-4, 48 h, read-out: GI
HOP-92 = test: Growth inhibition of human HOP92 cells at 10 uM after 48 hrs by sulforhodamine B assay; settings: HOP-92, 48 h, read-out: GI

Compound | inhibition of growth at 10 µM (HCT-116) [%] | inhibition of growth at 10 µM (IGROV-1) [%] | inhibition of growth at 10 µM (PC-3) [%] | inhibition of growth at 10 µM (CAKI-1) [%] | inhibition of growth at 10 µM (UO-31) [%] | inhibition of growth at 10 µM (UACC-62) [%] | inhibition of growth at 10 µM (SF-295) [%] | inhibition of growth at 10 µM (MOLT-4) [%] | inhibition of growth at 10 µM (HOP-92) [%]
CO[C@H]1NC(=O)N(S(=O)(=O)c2ccc3ccccc3c2)[C@@H]1OC (relative stereo) | -4.18 | -25.5 | 2.1 | -7.3 | 13.7 | 1.65 | 4.43 |  | 
COc1ccc(S(=O)(=O)N2C(=O)N[C@H](OC)[C@H]2OC)cc1 (relative stereo) | -23.4 | -20.7 | -2.45 | 7.51 |  |  | 8.51 | -5.62 | 
CO[C@H]1NC(=O)N(S(=O)(=O)c2ccc(Cl)cc2)[C@@H]1OC (relative stereo) | -10.3 | -23.9 | 2.67 | 7.49 | 22 |  | 7.91 |  | -13.6
COc1ccc(S(=O)(=O)N2C(=O)N[C@H](OC)[C@H]2OC)c(OC)c1 (relative stereo) |  | -13.9 | 4.15 | 21.2 | 6.25 | 8.26 | 2.06 |  | 
CO[C@H]1NC(=O)N(S(=O)(=O)c2c(C)cc(C)cc2C)[C@@H]1OC (relative stereo) |  | -7.61 | 4.26 | 15.7 | 14.7 | 6.82 |  |  | 21.3
CO[C@@H]1[C@@H](OC)N(S(=O)(=O)c2ccccc2)C(=O)N1S(=O)(=O)c1ccccc1 (relative stereo) | -2.02 | 3.06 | 5.78 | 10.4 | 15 | -6.88 | -12.3 | 13.3 | 29.9
COc1ccc(S(=O)(=O)N2C(=O)N(S(=O)(=O)c3ccc(OC)cc3)[C@H](OC)[C@H]2OC)cc1 (relative stereo) | 8.94 | 6.17 | 22.2 | 36.8 | 35.1 | 20.3 | 6.43 | 15.6 | 61
COc1ccc(S(=O)(=O)N2C(=O)N(S(=O)(=O)c3ccc(OC)cc3OC)[C@H](OC)[C@H]2OC)c(OC)c1 (relative stereo) | -2.15 | 3.77 | 15.9 | 17.1 | 23.3 | 16 | 4.19 | 14.2 | 
CO[C@@H]1[C@@H](OC)N(S(=O)(=O)c2ccc(Cl)cc2Cl)C(=O)N1S(=O)(=O)c1ccc(Cl)cc1Cl (relative stereo) | 11.9 | 4.16 | 22.5 | 25 | 15.3 | 4.25 | 16 | 14.2 | 60.2
